The supplement of paper PMC5412046
Counter-ions that a name gives are not always drawn.

Legend:
SB.mhdgc-1 [1] = test: area under the dose-response curve of % viability (trapezoidal, 11 doses) (% viability x log10 concentration); higher = less cytotoxic; settings: SB.mhdgc-1 (hereditary c.1380delA CDH1 gastric cancer)
How it was run: (§1)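 Each entry is viability relative to DMSO, given either at the highest concentration tested or as a trapezoidal area under the curve. Gastric cancer cells from hereditary or sporadic patients (500 cells in 5 μL medium per 1536 well) received compound in DMSO at 11 threefold-diluted concentrations, 23 nL by pintool. Luminescence from CellTiter-Glo was read after 48 h.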

SB.msgc-1 [2] = test: as above; settings: SB.msgc-1 (sporadic gastric cancer)
How it was run: as §1

SB.mhdgc-1 [3] = test: viability at highest tested concentration (MAXR) relative to DMSO; higher = less cytotoxic; settings: SB.mhdgc-1 (hereditary c.1380delA CDH1 gastric cancer)
How it was run: as §1

SB.msgc-1 [4] = test: as above; settings: SB.msgc-1 (sporadic gastric cancer)
How it was run: as §1

Compound | area under the dose-response curve (SB.mhdgc-1 [1]) | area under the dose-response curve (SB.msgc-1 [2]) | viability (SB.mhdgc-1 [3]) | viability (SB.msgc-1 [4])
CC(=O)NC(CS)C(=O)O (configuration not stated) [Acetylcysteine] (top concentration 46.0829 µM) | 428 | 493 | 91.5% | 108%
CCOC(=O)C(C)OC1=CC=CC2=C1\C=C/N(CC(=O)NC3=CC=C4OCCOC4=C3)C2=O (configuration not stated) (top concentration 46.0829 µM) | 564 | 273 | 111% | 28.1%
O=c1cc(-c2ccc(O)c(O)c2)oc2cc(O)cc(O)c12 [Luteolin] (top concentration 46.0829 µM) | 442 | 572 | 42.6% | 86.9%
Nc1c2c(nc3ccccc13)CCCC2 [Tacrine hydrochloride] (top concentration 46.0829 µM) | 627 | 583 | 125% | 119%
NC(=O)c1ccc2[nH]c(-c3ccc(Oc4ccc(Cl)cc4)cc3)nc2c1 (top concentration 46.0829 µM) | 360 | 485 | 36.4% | 56.6%
NC(=O)c1ccc2[nH]ccc2c1 [SD-169] (top concentration 46.0829 µM) | 479 | 556 | 96.9% | 117%
CN(C)C(=O)[C@H](O)[C@H](Cc1ccccc1)NC(=O)c1cc2cc(Cl)ccc2[nH]1 (top concentration 46.0829 µM) | 476 | 476 | 59.6% | 55.1%
COC1=CC(=CC(=C1)C2=CC=C3N=CC\4=C(N(C(=O)\C=C4)C5=CC(=C(C=C5)N6CCNCC6)C(F)(F)F)C3=C2)OC (top concentration 46.0829 µM) | 376 | 453 | 2.73% | 16.9%
Cc1cc2c(C(C)C)c(O)c(O)c(C=O)c2c(O)c1-c1c(C)cc2c(C(C)C)c(O)c(O)c(C=O)c2c1O [(-)-Gossypol] (top concentration 46.0829 µM) | 537 | 495 | 18.3% | 18.3%
CC1=CC=C2\N=C/3N(CC[C@@]3(O)C(=O)C2=C1)C4=CC=CC=C4 [(-)-Blebbistatin] (top concentration 46.0829 µM) | 392 | 477 | 38.7% | 78.3%
COc1ccc(C(=O)c2c(C)n(CCN3CCOCC3)c3ccccc23)cc1 [Pravadoline] (top concentration 46.0829 µM) | 563 | 463 | 114% | 94.5%
Cc1ncc(-c2ccnc(Nc3ccc([S+](C)(=O)[O-])cc3)n2)n1C(C)C [AZD-5438] (top concentration 46.0829 µM) | 496 | 436 | 48.2% | 39.5%
COc1cc2c(N3CCN(C(=O)Nc4ccc(OC(C)C)cc4)CC3)ncnc2cc1OCCCN1CCCCC1 [Tandutinib] (top concentration 46.0829 µM) | 342 | 478 | 7.84% | 60.2%
O=C(O)[C@H](Cc1c[nH]c2ccccc12)N1C(=O)c2ccccc2C1=O [RG-108] (top concentration 92.1659 µM) | 545 | 501 | 80.9% | 95.3%
NC(=O)c1cnc(-c2ccc(C3(N)CCC3)cc2)c(-c2ccccc2)c1 [AZD-26] (top concentration 46.0829 µM) | 410 | 484 | 20.5% | 80.2%
C[C@@H](NC(=O)c1ncnc(N)c1Cl)c1ncc(C(=O)Nc2cc(C(F)(F)F)c(Cl)cn2)s1 [MLN-2480] (top concentration 46.0829 µM) | 543 | 554 | 71.9% | 48.3%
COc1cc(N2CCC(N3CCN(C)CC3)CC2)ccc1Nc1ncc(Cl)c(Nc2ccccc2[S+](=O)([O-])C(C)C)n1 [TAE-684] (top concentration 46.0829 µM) | 221 | 343 | 2.06% | 28.8%
Cc1cccc(Nc2ccncc2[S+](=O)([O-])NC(=O)NC(C)C)c1 [Torasemide] (top concentration 46.0829 µM) | 459 | 521 | 105% | 93%
Oc1ccc2c3c1O[C@H]1c4[nH]c5c(c4C[C@@]4(O)[C@@H](C2)N(CC2CC2)CC[C@]314)C[C@@]1(O)[C@H]2Cc3ccc(O)c4c3[C@@]1(CCN2CC1CC1)[C@H]5O4 [nor-Binaltorphimine] (top concentration 46.0829 µM) | 567 | 548 | 130% | 118%
Cc1ccccc1N1C(=O)c2cc([S+](N)(=O)[O-])c(Cl)cc2NC1C (configuration not stated) [Metolazone] (top concentration 46.0829 µM) | 571 | 529 | 97% | 101%
Cl.O[C@@H](CNC[C@H](O)[C@H]1CCc2cc(F)ccc2O1)[C@@H]1CCc2cc(F)ccc2O1 [Nebivolol] (top concentration 46.0829 µM) | 511 | 524 | 10.2% | 79%
Clc1ccc(C(Cn2ccnc2)OCc2ccc(Sc3ccccc3)cc2)c(Cl)c1 (configuration not stated) [Fenticonazole nitrate] (top concentration 46.0829 µM) | 487 | 493 | 22.8% | 51.2%
CC(C)N[C@@H]1CCn2c(=O)[nH]c3cccc(c32)[C@H]1O [Zilpaterol] (top concentration 46.0829 µM) | 402 | 446 | 11.1% | 19.2%
